From patent publication US10214492B2, “Heterocyclic inhibitors of MCT4” (Vettore, LLC, priority 2016, dated 2019)

Legend:
MCT4 = MCT4 (Homo sapiens (Human), UniProt O15427); assay: Assay 3: MCT4-mediated lactate transport in MDA-MB-231 breast cancer cells; type: cell-based; settings: MDA-MB-231 cells; lactate transport
Procedure, shortened: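 MDA-MB-231 cells loaded with BCECF-AM, 5 min at 37° C, washed and resuspended in Tyrode's Solution, pH 7.4. MCT4 lactate/proton symport followed as the intracellular pH change reported by BCECF fluorescence.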

[1] = Metabolic stability in rat liver microsomes (in vitro t1/2); type: in vitro ADME; settings: for half-life at 2 µM: read-out: Rat microsome t1/2, min; for Rat microsome % 60 min: rat liver microsomes
Description: (§1) The following are assays that may be used to evaluate the metabolic stability of compounds of Formula (I) in human, rat, or mouse microsomes. The assays follow a common procedure recited below. 1. […] Two separated experiments were performed as follows. a) With NADPH: 10 μL of 20 mg/mL liver microsomes and 40 μL of 10 mM NADPH were added to the incubations. […] The final concentration of microsomes was 0.5 mg/mL. 3. The reaction was started with the addition of 4 μL of 200 μM control compound or test compound solutions. Verapamil was used as positive control in this study. The final concentration of test compound or control compound was 2 μM. 4. Aliquots of 50 μL were taken from the reaction solution at 0, 15, 30, 45 and 60 min. […] Samples were centrifuged at 3,220 g for 40 minutes. A 90 μL aliquot of the supernatant was mixed with 90 μL of ultra-pure H2O and then used for LC-MS/MS analysis. 5. Data analysis. All calculations were carried out using Microsoft Excel. Peak areas were determined from extracted ion chromatograms. The slope value, k, was determined by linear regression of the natural logarithm of the remaining percentage of the parent drug vs. incubation time curve. The in vitro half-life (in vitro t1/2) was determined from the slope value: in vitro t1/2=−(0.693)/k.

[2] = Metabolic stability in human liver microsomes (in vitro t1/2); type: in vitro ADME; settings: for half-life at 2 µM / Human microsome t1/2, min: human liver microsomes 0.5 mg/mL, 2 μM compound; for half-life at 2 µM: read-out: Human microsome t1/2, min; for Human microsome % 60 min: human liver microsomes
Description: as §1

[3] = Metabolic stability in mouse liver microsomes (in vitro t1/2); type: in vitro ADME; settings: for half-life at 2 µM: mouse liver microsomes 0.5 mg/mL, 2 μM compound, read-out: Mouse microsome t1/2, min; for Mouse microsome % 60 min: mouse liver microsomes
Description: as §1

MCT1 = MCT1 (Homo sapiens (Human), UniProt P53985); assay: Assay 4: MCT1-mediated lactate transport in BT20 breast cancer cells; type: cell-based; settings: Table 27
MCT1, sequence (P53985 whole entry): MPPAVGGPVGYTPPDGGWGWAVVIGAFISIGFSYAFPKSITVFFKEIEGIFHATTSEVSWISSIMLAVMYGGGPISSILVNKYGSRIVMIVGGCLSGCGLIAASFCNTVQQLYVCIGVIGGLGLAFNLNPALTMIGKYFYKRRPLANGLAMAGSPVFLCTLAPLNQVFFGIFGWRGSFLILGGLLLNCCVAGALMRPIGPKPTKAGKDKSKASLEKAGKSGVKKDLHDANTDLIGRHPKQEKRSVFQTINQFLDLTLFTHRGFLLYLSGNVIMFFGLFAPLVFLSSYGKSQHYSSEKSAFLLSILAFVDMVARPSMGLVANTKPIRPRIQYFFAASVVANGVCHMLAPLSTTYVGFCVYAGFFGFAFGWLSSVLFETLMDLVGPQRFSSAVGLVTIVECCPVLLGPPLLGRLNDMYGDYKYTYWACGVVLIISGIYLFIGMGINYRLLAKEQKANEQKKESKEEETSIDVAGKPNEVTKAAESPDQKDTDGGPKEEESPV
MCT1, sequence (P35613 140-385 partner): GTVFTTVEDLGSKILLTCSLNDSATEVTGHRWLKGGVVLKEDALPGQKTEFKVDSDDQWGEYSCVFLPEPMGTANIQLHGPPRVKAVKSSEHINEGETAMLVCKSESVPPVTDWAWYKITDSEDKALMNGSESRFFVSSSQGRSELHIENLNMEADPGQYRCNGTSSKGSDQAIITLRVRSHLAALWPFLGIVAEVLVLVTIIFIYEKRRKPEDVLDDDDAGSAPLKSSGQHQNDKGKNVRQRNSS
Procedure, shortened: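 BT20 cells loaded with BCECF-AM (30 mM DMSO stock) for 5 min at 37° C, washed and resuspended in Tyrode's Solution pH 7.4. Lactate uptake tracked via BCECF intracellular pH signal after adding 10 mM L-lactate.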

[4] = rat liver microsomes 0.5 mg/mL, 2 μM compound

MCT4, sequence (O15427 whole entry, looked up): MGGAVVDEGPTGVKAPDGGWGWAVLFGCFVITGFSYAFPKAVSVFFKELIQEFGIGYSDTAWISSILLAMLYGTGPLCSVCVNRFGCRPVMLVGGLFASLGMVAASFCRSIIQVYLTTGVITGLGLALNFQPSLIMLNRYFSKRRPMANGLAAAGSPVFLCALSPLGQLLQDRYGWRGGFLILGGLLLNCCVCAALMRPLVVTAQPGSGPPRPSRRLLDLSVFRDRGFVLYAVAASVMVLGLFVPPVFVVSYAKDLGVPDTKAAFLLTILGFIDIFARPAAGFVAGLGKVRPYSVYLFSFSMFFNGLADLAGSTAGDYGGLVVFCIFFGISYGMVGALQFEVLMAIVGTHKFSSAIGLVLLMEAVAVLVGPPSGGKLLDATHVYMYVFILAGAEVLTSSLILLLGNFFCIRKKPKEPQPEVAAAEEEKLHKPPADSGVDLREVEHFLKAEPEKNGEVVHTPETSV
MCT4, sequence (P35613 whole entry partner, looked up): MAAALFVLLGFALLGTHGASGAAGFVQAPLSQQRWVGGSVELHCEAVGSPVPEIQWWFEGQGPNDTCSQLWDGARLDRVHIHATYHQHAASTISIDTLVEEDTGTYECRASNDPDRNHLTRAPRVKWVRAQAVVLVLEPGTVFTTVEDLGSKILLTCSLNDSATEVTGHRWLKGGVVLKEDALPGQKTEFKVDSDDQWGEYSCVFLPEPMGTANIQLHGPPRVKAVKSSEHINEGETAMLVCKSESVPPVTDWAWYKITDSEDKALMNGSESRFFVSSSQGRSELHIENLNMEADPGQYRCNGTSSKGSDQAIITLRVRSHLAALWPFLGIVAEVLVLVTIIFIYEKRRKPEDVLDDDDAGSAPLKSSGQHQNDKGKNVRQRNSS

SMILES	IC50 (MCT4) [nM]	half-life at 2 µM [1, 4] [h]	Rat microsome % 60 min [1] [%]	half-life at 2 µM [2] [h]	Human microsome % 60 min [2] [%]	half-life at 2 µM [3] [h]	Mouse microsome % 60 min [3] [%]	IC50 (MCT1) [nM]	Rat microsome t1/2, min [1, 4]	Human microsome t1/2, min [2]
CC(C)(OCc1cc(-c2cccc(OC3CC3)c2)n(Cc2ccccc2N2CCCC2)n1)C(=O)O [Example 202, 2-([5-(3-Cyclopropoxyphenyl)-1-[[2-(pyrrolidin-1-yl)phenyl]methyl]|-1H-pyrazol-3-yl]methoxy)-2-methylpropanoic acid]	6.2	0.183	2	0.617	32	0.633	32	23000	–	–
Cn1ncc2cccc(-n3nc(COC(C)(C)C(=O)O)cc3-c3cccc(OC4CCC4)c3)c21 [Example 166, 2-([5-(3-Cyclobutoxyphenyl)-1-(1-methyl-1H-indazol-7-yl)-1H-pyrazol-3-yl]-methoxy)-2-methylpropanoic acid]	5.9	–	102	21.1	94	3.23	82	53000	∞	–
CCOc1cccc(-n2nc(COC(C)(C)C(=O)O)cc2-c2cc(OC)cc(OC)c2)c1 [Example 243, 2-([5-(3,5-Dimethoxyphenyl)-1-(3-ethoxyphenyl)-1H-pyrazol-3-yl]methoxy)-2-methylpropanoic acid]	–	5.03	88	7.22	88	21.7	97	78000	–	–
CCOc1ccccc1Cn1nc(COC(C)(C)C(=O)O)cc1-c1ccc2cnn(CC)c2c1 [Example 198, 2-([1-[(2-Ethoxyphenyl)methyl]-5-(1-ethyl-1H-indazol-6-yl)-1H-pyrazol-3-yl]-methoxy)-2-methylpropanoic acid]	3.5	3.42	82	3.45	80	4.05	84	26000	–	–
CCOc1ccccc1Cn1nc(COC(C)(C)C(=O)O)cc1-c1cccc(OC2CC2)c1 [Example 201, 2-([5-(3-Cyclopropoxyphenyl)-1-[(2-ethoxy-phenyl)methyl]-1H-pyrazol-3-yl]methoxy)-2-methylpropanoic acid]	7.2	0.75	39	1.38	58	1.38	58	15000	–	–
Cc1ccccc1-n1nc(COC(C)(C)C(=O)O)cc1-c1cccc(OC2CC2)c1 [Example 188, 2-([5-(3-Cyclopropoxyphenyl)-1-(2-methyl-phenyl)-1H-pyrazol-3-yl]methoxy)-2-methylpropanoic acid]	7.5	8.17	87	–	101	23.3	92	15000	–	∞
CC[C@](C)(OCc1cc(-c2cccc(OC)c2)n(Cc2ccccc2Cl)n1)C(=O)O [Example 120, (2S)-2-([1-[(2-chlorophenyl)methyl]-5-(3-methoxyphenyl)-1H-pyrazol-3-yl]methoxy)-2-methylbutanoic Acid]	4	0.85	44	3.3	81	6.83	101	22000	–	–
CC(C)Cc1ncc(-c2cc(COC(C)(C)C(=O)O)nn2Cc2ccccc2Cl)o1 [Example 134, 2-([1-[(2-Chlorophenyl)methyl]-5-[2-(2-methylpropyl)-1,3-oxazol-5-yl]-1H-pyrazol-3-yl]methoxy)-2-methylpropanoic acid]	–	4.4	85	3.1	80	1.82	72	–	–	–
COc1cccc(-c2cc(COC(C)(C)C(=O)O)nn2Cc2ccccc2OC(C)C)c1 [Example 140, 2-([5-(3-Methoxyphenyl)-1-[[2-(propan-2-yloxy)phenyl]methyl]-1H-pyrazol-3-yl)methoxy)-2-methylpropanoic acid]	8.3	0.983	48	1.82	67	1.07	62	16000	–	–
CC[C@@](C)(OCc1cc(-c2cc(OC)cc(OC)c2)n(-c2ccccc2Cl)n1)C(=O)O [Example 222, (2R)-2-([1-(2-Chlorophenyl)-5-(3,5-dimethoxyphenyl)-1H-pyrazol-3-yl]-methoxy)-2-methylbutanoic acid]	3.9	5.58	90	–	110	16.7	94	94000	–	∞
CC(C)(OCc1cc(-c2cccc(OC3CC3)c2)n(-c2ccccc2N2CCCC2)n1)C(=O)O [Example 221, 2-([5-(3-Cyclopropoxyphenyl)-1-[2-(pyrrolidin-1-yl)phenyl]-1H-pyrazol-3-yl]-methoxy)-2-methylpropanoic acid]	3.2	0.617	33	1.13	56	0.633	34	38000	–	–
CC(C)Oc1ncc(-c2cc(COC(C)(C)C(=O)O)nn2Cc2ccccc2Cl)s1 [Example 133, 2-([1-[(2-Chlorophenyl)methyl]-5-[2-(propan-2-yloxy)-1,3-thiazol-5-yl]-1H-pyrazol-3-yl]methoxy)-2-methylpropanoic acid]	13	6.73	91	16.8	97	5.73	90	> 33000	–	–
CC[C@@](C)(OCc1cc(-c2cccc(OC)c2)n(Cc2ccccc2Cl)n1)C(=O)O [Example 121, (2R)-2-([1-[(2-chlorophenyl)methyl]-5-(3-methoxyphenyl)-1H-pyrazol-3-yl]methoxy)-2-methylbutanoic Acid]	8	1.43	61	3.3	82	3.1	81	21000	–	–
CC(C)(C)COc1cccc(-c2cc(COC(C)(C)C(=O)O)nn2-c2ccccc2Cl)c1 [Example 177, 2-([1-(2-chlorophenyl)-5-[3-(2,2-dimethyl-propoxy)phenyl]-1H-pyrazol-3-yl]methoxy)-2-methylpropanoic acid]	1.4	10.6	90	3.07	75	5.57	87	35000	–	–
CCn1ncc2ccc(-c3cc(COC(C)(C)C(=O)O)nn3-c3ccccc3Cl)cc21 [Example 157, 2-([1-(2-chlorophenyl)-5-(1-ethyl-1H-indazol-6-yl)-1H-pyrazol-3-yl]methoxy)-2-methylpropanoic acid]	–	12.5	97	2.48	78	161	102	–	–	–
COc1cccc(-c2cc(COC(C)(C)C(=O)O)nn2Cc2ccccc2N(C)C)c1 [Example 38, 2-([1-[(2-(Dimethylamino)phenyl]methyl]-5-(3-methoxyphenyl)1H-pyrazol-3-yl]methoxy)-2-methylpropanoic acid]	–	–	–	1.27	56	1.32	61	–	–	–
Cn1ncc2cccc(-n3nc(COC(C)(C)C(=O)O)cc3-c3cccc(OCC4CCC4)c3)c21 [Example 168, 2-([5-[3-(cyclobutylmethoxy)phenyl]-1-(1-methyl-1H-indazol-7-yl)-1H-pyrazol-3-yl]-methoxy)-2-methylpropanoic acid]	1.7	2.88	81	3.12	78	3.82	81	–	–	–
